Experimental data from ChEMBL document CHEMBL4418490, “N-(heteroaryl)-sulfonamide derivatives useful as s100-inhibitors” (2018).
Values belong to the compound of their own block, whether it stands above or below them. Calls of active or inactive are those of the source. The rule behind the calls is not given here.

Experiments:
[1] = system: MC-38; assay: Antitumor activity against C215 transfected MC38 cells implanted in C57BL/6 mouse assessed as inhibition of tumor growth at 30 mg/kg, po dosed daily for 16 days starting following day of tumor inoculation; type: functional, organism-based
[2] = Plasma concentration in C215 transfected MC38 cells implanted C57BL/6 mouse at 1 mg/kg, iv dosed as cassette formulation and measured at 7 hrs after post dose by LC-MS analysis; type: ADME, organism-based
[3] = Plasma concentration in C215 transfected MC38 cells implanted C57BL/6 mouse at 1 mg/kg, iv dosed as cassette formulation and measured at 2 hrs after post dose by LC-MS analysis; type: ADME, organism-based
[4] = Plasma concentration in C215 transfected MC38 cells implanted C57BL/6 mouse assessed as N-(5-bromo-3-hydroxypyrazin-2-yl)-1-(3,4-dichlorophenyl)methanesulfonamide level at 5 mg/kg, po dosed as cassette formulation and measured at 2 hrs after post dose by LC-MS analysis; type: ADME, organism-based; settings: in vivo
[5] = Plasma concentration in C215 transfected MC38 cells implanted C57BL/6 mouse assessed as N-(5-bromo-3-hydroxypyrazin-2-yl)-1-(3,4-dichlorophenyl)methanesulfonamide level at 1 mg/kg, iv dosed as cassette formulation and measured at 0.5 hrs after post dose by LC-MS analysis; type: ADME, organism-based; settings: in vivo
[6] = Plasma concentration in C215 transfected MC38 cells implanted C57BL/6 mouse at 5 mg/kg, po dosed as cassette formulation and measured at 4 hrs after post dose by LC-MS analysis; type: ADME, organism-based
[7] = Plasma concentration in C215 transfected MC38 cells implanted C57BL/6 mouse assessed as N-(5-bromo-3-hydroxypyrazin-2-yl)-1-(3,4-dichlorophenyl)methanesulfonamide level at 5 mg/kg, po dosed as cassette formulation and measured at 4 hrs after post dose by LC-MS analysis; type: ADME, organism-based; settings: in vivo
[8] = Plasma concentration in C215 transfected MC38 cells implanted C57BL/6 mouse at 1 mg/kg, iv dosed as cassette formulation and measured at 4 hrs after post dose by LC-MS analysis; type: ADME, organism-based
[9] = Plasma concentration in C215 transfected MC38 cells implanted C57BL/6 mouse assessed as N-(5-bromo-3-hydroxypyrazin-2-yl)-1-(3,4-dichlorophenyl)methanesulfonamide level at 1 mg/kg, iv dosed as cassette formulation and measured at 7 hrs after post dose by LC-MS analysis; type: ADME, organism-based; settings: in vivo
[10] = Plasma concentration in C215 transfected MC38 cells implanted C57BL/6 mouse at 5 mg/kg, po dosed as cassette formulation and measured at 0.5 hrs after post dose by LC-MS analysis; type: ADME, organism-based
[11] = Plasma concentration in C215 transfected MC38 cells implanted C57BL/6 mouse assessed as N-(5-bromo-3-hydroxypyrazin-2-yl)-1-(3,4-dichlorophenyl)methanesulfonamide level at 1 mg/kg, iv dosed as cassette formulation and measured at 2 hrs after post dose by LC-MS analysis; type: ADME, organism-based; settings: in vivo
[12] = Plasma concentration in C215 transfected MC38 cells implanted C57BL/6 mouse at 1 mg/kg, iv dosed as cassette formulation and measured at 1 hr after post dose by LC-MS analysis; type: ADME, organism-based
[13] = Plasma concentration in C215 transfected MC38 cells implanted C57BL/6 mouse assessed as N-(5-bromo-3-hydroxypyrazin-2-yl)-1-(3,4-dichlorophenyl)methanesulfonamide level at 5 mg/kg, po dosed as cassette formulation and measured at 1 hr after post dose by LC-MS analysis; type: ADME, organism-based; settings: in vivo
[14] = Plasma concentration in C215 transfected MC38 cells implanted C57BL/6 mouse assessed as N-(5-bromo-3-hydroxypyrazin-2-yl)-1-(3,4-dichlorophenyl)methanesulfonamide level at 1 mg/kg, iv dosed as cassette formulation and measured at 4 hrs after post dose by LC-MS analysis; type: ADME, organism-based; settings: in vivo
[15] = Plasma concentration in C215 transfected MC38 cells implanted C57BL/6 mouse assessed as N-(5-bromo-3-hydroxypyrazin-2-yl)-1-(3,4-dichlorophenyl)methanesulfonamide level at 1 mg/kg, iv dosed as cassette formulation and measured at 1 hr after post dose by LC-MS analysis; type: ADME, organism-based; settings: in vivo
[16] = Plasma concentration in C215 transfected MC38 cells implanted C57BL/6 mouse at 1 mg/kg, iv dosed as cassette formulation and measured at 0.083 hrs after post dose by LC-MS analysis; type: ADME, organism-based
[17] = Plasma concentration in C215 transfected MC38 cells implanted C57BL/6 mouse at 5 mg/kg, po dosed as cassette formulation and measured at 1 hr after post dose by LC-MS analysis; type: ADME, organism-based
[18] = Plasma concentration in C215 transfected MC38 cells implanted C57BL/6 mouse at 5 mg/kg, po dosed as cassette formulation and measured at 2 hrs after post dose by LC-MS analysis; type: ADME, organism-based
[19] = Plasma concentration in C215 transfected MC38 cells implanted C57BL/6 mouse assessed as N-(5-bromo-3-hydroxypyrazin-2-yl)-1-(3,4-dichlorophenyl)methanesulfonamide level at 5 mg/kg, po dosed as cassette formulation and measured at 7 hrs after post dose by LC-MS analysis; type: ADME, organism-based; settings: in vivo
[20] = Plasma concentration in C215 transfected MC38 cells implanted C57BL/6 mouse assessed as N-(5-bromo-3-hydroxypyrazin-2-yl)-1-(3,4-dichlorophenyl)methanesulfonamide level at 1 mg/kg, iv dosed as cassette formulation and measured at 0.083 hrs after post dose by LC-MS analysis; type: ADME, organism-based; settings: in vivo
[21] = Plasma concentration in C215 transfected MC38 cells implanted C57BL/6 mouse assessed as N-(5-bromo-3-hydroxypyrazin-2-yl)-1-(3,4-dichlorophenyl)methanesulfonamide level at 5 mg/kg, po dosed as cassette formulation and measured at 0.5 hrs after post dose by LC-MS analysis; type: ADME, organism-based; settings: in vivo
[22] = Plasma concentration in C215 transfected MC38 cells implanted C57BL/6 mouse at 1 mg/kg, iv dosed as cassette formulation and measured at 0.5 hrs after post dose by LC-MS analysis; type: ADME, organism-based
[23] = Plasma concentration in C215 transfected MC38 cells implanted C57BL/6 mouse at 5 mg/kg, po dosed as cassette formulation and measured at 7 hrs after post dose by LC-MS analysis; type: ADME, organism-based
[24] = Plasma concentration in C215 transfected MC38 cells implanted C57BL/6 mouse assessed as N-(5-chloro-3-hydroxypyridin-2-yl)-1-(3,5-dichlorophenyl)methanesulfonamide level at 1 mg/kg, iv dosed as cassette formulation and measured at 2 hrs after post dose by LC-MS analysis; type: ADME, organism-based; settings: in vivo
[25] = Plasma concentration in C215 transfected MC38 cells implanted C57BL/6 mouse assessed as N-(5-chloro-3-hydroxypyridin-2-yl)-1-(3,5-dichlorophenyl)methanesulfonamide level at 1 mg/kg, iv dosed as cassette formulation and measured at 7 hrs after post dose by LC-MS analysis; type: ADME, organism-based; settings: in vivo
[26] = Plasma concentration in C215 transfected MC38 cells implanted C57BL/6 mouse assessed as N-(5-chloro-3-hydroxypyridin-2-yl)-1-(3,5-dichlorophenyl)methanesulfonamide level at 5 mg/kg, po dosed as cassette formulation and measured at 7 hrs after post dose by LC-MS analysis; type: ADME, organism-based; settings: in vivo
[27] = Plasma concentration in C215 transfected MC38 cells implanted C57BL/6 mouse assessed as N-(5-chloro-3-hydroxypyridin-2-yl)-1-(3,5-dichlorophenyl)methanesulfonamide level at 1 mg/kg, iv dosed as cassette formulation and measured at 1 hr after post dose by LC-MS analysis; type: ADME, organism-based; settings: in vivo
[28] = Plasma concentration in C215 transfected MC38 cells implanted C57BL/6 mouse assessed as N-(5-chloro-3-hydroxypyridin-2-yl)-1-(3,5-dichlorophenyl)methanesulfonamide level at 5 mg/kg, po dosed as cassette formulation and measured at 2 hrs after post dose by LC-MS analysis; type: ADME, organism-based; settings: in vivo
[29] = Plasma concentration in C215 transfected MC38 cells implanted C57BL/6 mouse assessed as N-(5-chloro-3-hydroxypyridin-2-yl)-1-(3,5-dichlorophenyl)methanesulfonamide level at 1 mg/kg, iv dosed as cassette formulation and measured at 4 hrs after post dose by LC-MS analysis; type: ADME, organism-based; settings: in vivo
[30] = Plasma concentration in C215 transfected MC38 cells implanted C57BL/6 mouse assessed as N-(5-chloro-3-hydroxypyridin-2-yl)-1-(3,5-dichlorophenyl)methanesulfonamide level at 1 mg/kg, iv dosed as cassette formulation and measured at 0.083 hrs after post dose by LC-MS analysis; type: ADME, organism-based; settings: in vivo
[31] = Plasma concentration in C215 transfected MC38 cells implanted C57BL/6 mouse assessed as N-(5-chloro-3-hydroxypyridin-2-yl)-1-(3,5-dichlorophenyl)methanesulfonamide level at 5 mg/kg, po dosed as cassette formulation and measured at 0.5 hrs after post dose by LC-MS analysis; type: ADME, organism-based; settings: in vivo
[32] = Plasma concentration in C215 transfected MC38 cells implanted C57BL/6 mouse assessed as N-(5-chloro-3-hydroxypyridin-2-yl)-1-(3,5-dichlorophenyl)methanesulfonamide level at 5 mg/kg, po dosed as cassette formulation and measured at 4 hrs after post dose by LC-MS analysis; type: ADME, organism-based; settings: in vivo
[33] = Plasma concentration in C215 transfected MC38 cells implanted C57BL/6 mouse assessed as N-(5-chloro-3-hydroxypyridin-2-yl)-1-(3,5-dichlorophenyl)methanesulfonamide level at 5 mg/kg, po dosed as cassette formulation and measured at 1 hr after post dose by LC-MS analysis; type: ADME, organism-based; settings: in vivo
[34] = Plasma concentration in C215 transfected MC38 cells implanted C57BL/6 mouse assessed as N-(5-chloro-3-hydroxypyridin-2-yl)-1-(3,5-dichlorophenyl)methanesulfonamide level at 1 mg/kg, iv dosed as cassette formulation and measured at 0.5 hrs after post dose by LC-MS analysis; type: ADME, organism-based; settings: in vivo

SMILES: COc1ncc(S(=O)(=O)Nc2cncc(Cl)c2O)cc1Br
TGI [1]: Active

concentration at 7 h [2]: 6200 nM | concentration at 2 h [3]: 14900 nM | concentration [4]: 800 nM | concentration [5]: 320 nM | concentration at 4 h [6]: 59400 nM | concentration [7]: 630 nM | concentration at 4 h [8]: 9200 nM | concentration [9]: 200 nM | concentration at 0.5 h [10]: 51700 nM | concentration [11]: 320 nM | concentration at 1 h [12]: 17500 nM | concentration [13]: 860 nM | concentration [14]: 210 nM | concentration [15]: 320 nM | concentration at 0.083 h [16]: 25200 nM | concentration at 1 h [17]: 69400 nM | concentration at 2 h [18]: 78900 nM | concentration [19]: 1100 nM | concentration [20]: 120 nM | concentration [21]: 570 nM | concentration at 0.5 h [22]: 16800 nM | concentration at 7 h [23]: 73500 nM
SMILES: COc1nc(Br)cnc1NS(=O)(=O)Cc1ccc(Cl)c(Cl)c1

concentration at 7 h [2]: 150 nM | concentration [24]: 6 nM | concentration [25]: 4 nM | concentration at 2 h [3]: 380 nM | concentration at 4 h [6]: 850 nM | concentration [26]: 19 nM | concentration at 4 h [8]: 170 nM | concentration [27]: 3 nM | concentration at 0.5 h [10]: 3600 nM | concentration [28]: 21 nM | concentration at 1 h [12]: 84 nM | concentration [29]: 4 nM | concentration [30]: 44 nM | concentration at 0.083 h [16]: 6300 nM | concentration at 1 h [17]: 1600 nM | concentration at 2 h [18]: 1300 nM | concentration [31]: 45 nM | concentration [32]: 12 nM | concentration [33]: 26 nM | concentration at 0.5 h [22]: 550 nM | concentration [34]: 5 nM | concentration at 7 h [23]: 700 nM
SMILES: COc1cc(Cl)cnc1NS(=O)(=O)Cc1cc(Cl)cc(Cl)c1
